Results as given in patent publication US20230293453A1, “SPERMIDINE AND USES THEREOF” (TLL THE LONGEVITY LABS GMBH, priority 2020, published 2023).
Values belong to the compound of their own block, whether it stands above or below them.

Experiments:
ZSF1 obese rats [1] = assay: Myocardial nicotinamide and NAD+ levels by mass spectrometry, cardiometabolic syndrome model; assay type: in vivo, rat; details: 40 mM nicotinamide, with or without 3 mM spermidine, in drinking water for 14 weeks
Protocol: Cardiometabolic syndrome model: ZSF1 lean and obese rats of both genders were purchased at the age of 5 weeks from the Charles River Laboratories (Kingston, USA). Eight-week-old ZSF1 obese rats were divided into three weight-matched and equally sized/gender-balanced groups: group 1 received regular drinking water (non-treated control), group 2 received regular drinking water supplemented with 40 mM nicotinamide (i.e. 0.5% w/v), and group 3 was administered the combination of 40 mM nicotinamide and 3 mM spermidine (of synthetical origin) in drinking water for a period of 14 weeks. Water as well as food intake were monitored regularly. Age-matched untreated ZSF1 obese and lean rats served as controls. The mass spectrometric metabolomic analysis of nicotinamide and NAD^+ in rat myocardium was performed as described previously ([…]., et al. Aging (Albany NY) 11(2019):4783-4800). About 30 mg of tissue was weighed and solubilized in tubes with ceramic beads using 1 ml of cold lysate buffer (methanol:water ratio was 9:1; at -20° C.). Tissue samples were then homogenized three times for 20 s at 5.500 rpm using a Precellys 24 tissue homogenizer followed by centrifugation for 10 min at 15.000 g and 4° C. […] Peak detection and integration of the analytes were performed using the Agilent Mass Hunter quantitative software (B.07.01). […]

Aged C57BL/6J male mice [2] = assay: Diastolic function by echocardiography, aging model; assay type: in vivo, mouse; details: 24 mM nicotinamide, with or without 3 mM spermidine, in drinking water for 4 months, FIG. 2a
Protocol: Aging model: Aged C57BL/6J male mice were purchased from the Charles River Laboratories (Sulzfeld, Germany) at the age of 18 months and fed standard chow. Supplementation of 24 mM nicotinamide (i.e. 0.3% w/v, changed two times per week) and of spermidine (i.e. 3 mM final concentration at pH 7.2, changed two times per week) in the regular drinking water was conducted at 20 months of age for a period of 4 months. […] Transthoracic echocardiography was performed using high resolution micro-imaging system equipped with a 24- and 55-MHz linear array transducers for rats and mice, respectively, as described (Eisenberg et al. (2016), Nat Med 22(12): 1428-1438). Briefly, lightly anesthetized mice (0.5% isoflurane and 99.5% 02) were placed in the supine position on a temperature-controlled heating platform to maintain their body temperature at 37° C. Diastolic function was assessed using pulsed-wave and tissue Doppler imaging to determine the ratio between peak early-filling velocity of transmitral flow (E) and the corresponding mitral valve annulus velocity (e′), respectively.

[3] = system: Dahl salt-sensitive male rats; assay: Diastolic function by hemodynamic pressure-volume measurement, salt-induced hypertensive heart disease model; assay type: in vivo, rat; details: Dahl rats on high-salt diet; 40 mM nicotinamide in drinking water for 12 weeks; FIG. 2b
Source text: Salt-induced hypertensive heart disease model: Dahl salt-sensitive male rats (n=24) were purchased at the age of 4 weeks from the Charles River Laboratories (Kingston, USA). Eight rats were fed the low-salt diet containing 0.3% NaCl (AIN-76A, Research Diets, Inc. USA) throughout the experiment and served as a healthy control group. Low-salt diet was fed also to the remaining 16 Dahl rats until the age of 7 weeks, when the diet was switched to a high-salt diet (AIN-76A with 8% NaCl, Research Diets, Inc. USA), and the rats were divided into two weight-matched cohorts each consisting of two equally sized groups (n=8 animals per group); group 1 received regular drinking water (non-treated control), while group 2 received regular drinking water supplemented with 40 mM nicotinamide (i.e. 0.5% w/v) for a period of 12 weeks. […] The heart rate was monitored by an electrocardiogram (Animal Bio Amp, FE136) and kept at 350-400 bpm throughout the experiment. […] Signals were continuously acquired (MPVS PL3508 PowerLab 8/35), digitized at 2 kHz (ML880 PowerLab 16/30), and analyzed offline (LabChart 8 Pro). After a stabilization period of 10 min, left ventricular end-diastolic pressure (EDP), a baseline parameter of diastolic function, was measured and aver-aged from ten consecutive beats, with ventilation suspended at end-expiration. […]

ZSF1 obese rats [4] = assay: Diastolic function by echocardiography, cardiometabolic syndrome model; assay type: in vivo, rat; details: 40 mM nicotinamide, with or without 3 mM spermidine, in drinking water for 14 weeks, FIG. 2c
Protocol: Cardiometabolic syndrome model: ZSF1 lean and obese rats of both genders were purchased at the age of 5 weeks from the Charles River Laboratories (Kingston, USA). Eight-week-old ZSF1 obese rats were divided into three weight-matched and equally sized/gender-balanced groups: group 1 received regular drinking water (non-treated control), group 2 received regular drinking water supplemented with 40 mM nicotinamide (i.e. 0.5% w/v), and group 3 was administered the combination of 40 mM nicotinamide and 3 mM spermidine (of synthetical origin) in drinking water for a period of 14 weeks. Water as well as food intake were monitored regularly. Age-matched untreated ZSF1 obese and lean rats served as controls. Transthoracic echocardiography was performed using high resolution micro-imaging system equipped with a 24- and 55-MHz linear array transducers for rats and mice, respectively, as described (Eisenberg et al. (2016), Nat Med 22(12): 1428-1438). […] Diastolic function was assessed using pulsed-wave and tissue Doppler imaging to determine the ratio between peak early-filling velocity of transmitral flow (E) and the corresponding mitral valve annulus velocity (e′), respectively. This measurement was conducted according to the method of item 2.1.1, with the exception that the rats were lightly anesthetized with 1-2% isoflurane and 98-99% 02.

Aged C57BL/6J male mice [5] = assay: Cardiac hypertrophy by gravimetry, aging model; assay type: in vivo, mouse; details: 24 mM nicotinamide, with or without 3 mM spermidine, in drinking water for 4 months, FIG. 3a
Protocol: Aging model: Aged C57BL/6J male mice were purchased from the Charles River Laboratories (Sulzfeld, Germany) at the age of 18 months and fed standard chow. Supplementation of 24 mM nicotinamide (i.e. 0.3% w/v, changed two times per week) and of spermidine (i.e. 3 mM final concentration at pH 7.2, changed two times per week) in the regular drinking water was conducted at 20 months of age for a period of 4 months. […] The heart was harvested and weighed, obtaining the heart weight (HW). For normalisation, the weight was subsequently divided by the length of the left tibia bone (TL), resulting in the ratio HW/TL.

[6] = system: Dahl salt-sensitive male rats; assay: Cardiac hypertrophy by gravimetry, salt-induced hypertensive heart disease model; assay type: in vivo, rat; details: Dahl rats on high-salt diet; 40 mM nicotinamide in drinking water for 12 weeks; FIG. 3b
Source text: Salt-induced hypertensive heart disease model: Dahl salt-sensitive male rats (n=24) were purchased at the age of 4 weeks from the Charles River Laboratories (Kingston, USA). Eight rats were fed the low-salt diet containing 0.3% NaCl (AIN-76A, Research Diets, Inc. USA) throughout the experiment and served as a healthy control group. Low-salt diet was fed also to the remaining 16 Dahl rats until the age of 7 weeks, when the diet was switched to a high-salt diet (AIN-76A with 8% NaCl, Research Diets, Inc. USA), and the rats were divided into two weight-matched cohorts each consisting of two equally sized groups (n=8 animals per group); group 1 received regular drinking water (non-treated control), while group 2 received regular drinking water supplemented with 40 mM nicotinamide (i.e. 0.5% w/v) for a period of 12 weeks. The heart was harvested and weighed, obtaining the heart weight (HW). For normalisation, the weight was subsequently divided by the length of the left tibia bone (TL), resulting in the ratio HW/TL.

ZSF1 obese rats [7] = assay: Cardiac hypertrophy by gravimetry, cardiometabolic syndrome model; assay type: in vivo, rat; details: 40 mM nicotinamide, with or without 3 mM spermidine, in drinking water for 14 weeks, FIG. 3c
Protocol: Cardiometabolic syndrome model: ZSF1 lean and obese rats of both genders were purchased at the age of 5 weeks from the Charles River Laboratories (Kingston, USA). Eight-week-old ZSF1 obese rats were divided into three weight-matched and equally sized/gender-balanced groups: group 1 received regular drinking water (non-treated control), group 2 received regular drinking water supplemented with 40 mM nicotinamide (i.e. 0.5% w/v), and group 3 was administered the combination of 40 mM nicotinamide and 3 mM spermidine (of synthetical origin) in drinking water for a period of 14 weeks. Water as well as food intake were monitored regularly. Age-matched untreated ZSF1 obese and lean rats served as controls. The heart was harvested and weighed, obtaining the heart weight (HW). For normalisation, the weight was subsequently divided by the length of the left tibia bone (TL), resulting in the ratio HW/TL.

[8] = system: Dahl salt-sensitive male rats; assay: Exercise capacity by exercise calorimetry, salt-induced hypertensive heart disease model; assay type: in vivo, rat; details: Dahl rats on high-salt diet; 40 mM nicotinamide in drinking water for 12 weeks; treadmill peak effort; FIG. 4a
Source text: Salt-induced hypertensive heart disease model: Dahl salt-sensitive male rats (n=24) were purchased at the age of 4 weeks from the Charles River Laboratories (Kingston, USA). Eight rats were fed the low-salt diet containing 0.3% NaCl (AIN-76A, Research Diets, Inc. USA) throughout the experiment and served as a healthy control group. Low-salt diet was fed also to the remaining 16 Dahl rats until the age of 7 weeks, when the diet was switched to a high-salt diet (AIN-76A with 8% NaCl, Research Diets, Inc. USA), and the rats were divided into two weight-matched cohorts each consisting of two equally sized groups (n=8 animals per group); group 1 received regular drinking water (non-treated control), while group 2 received regular drinking water supplemented with 40 mM nicotinamide (i.e. 0.5% w/v) for a period of 12 weeks. Rats were subjected to peak effort on a closed-chamber treadmill at an inclination of 10° coupled to a gas analyzer (CaloTreadmill). […] Calorimetric parameters, such as relative oxygen consumption (ΔVO2) and carbon dioxide production (ΔVCO2) were continuously measured at 0.2 Hz intervals during treadmill running. Maximal oxygen consumption (VO2max) and run distance were determined at the point at which oxygen uptake reached a plateau during exhaustive workout/exercise.

ZSF1 obese rats [9] = assay: Exercise capacity by exercise calorimetry, cardiometabolic syndrome model; assay type: in vivo, rat; details: 40 mM nicotinamide, with or without 3 mM spermidine, in drinking water for 14 weeks, treadmill peak effort, FIG. 4b
Protocol: Eight-week-old ZSF1 obese rats were divided into three weight-matched and equally sized/gender-balanced groups: group 1 received regular drinking water (non-treated control), group 2 received regular drinking water supplemented with 40 mM nicotinamide (i.e. 0.5% w/v), and group 3 was administered the combination of 40 mM nicotinamide and 3 mM spermidine (of synthetical origin) in drinking water for a period of 14 weeks. Water as well as food intake were monitored regularly. Age-matched untreated ZSF1 obese and lean rats served as controls. Rats were subjected to peak effort on a closed-chamber treadmill at an inclination of 10° coupled to a gas analyzer (CaloTreadmill). […] The exercise session ended at the maximal fatigue, which was defined as the lack of ability to maintain running speed despite being in contact with the electric shock for more than 5 seconds. Calorimetric parameters, such as relative oxygen consumption (ΔVO2) and carbon dioxide production (ΔVCO2) were continuously measured at 0.2 Hz intervals during treadmill running. Maximal oxygen consumption (VO2max) and run distance were determined at the point at which oxygen uptake reached a plateau during exhaustive workout/exercise.

[10] = system: Dahl salt-sensitive male rats; assay: Lung congestion by gravimetry, salt-induced hypertensive heart disease model; assay type: in vivo, rat; details: Dahl rats on high-salt diet; 40 mM nicotinamide in drinking water for 12 weeks; FIG. 5a
Source text: Salt-induced hypertensive heart disease model: Dahl salt-sensitive male rats (n=24) were purchased at the age of 4 weeks from the Charles River Laboratories (Kingston, USA). Eight rats were fed the low-salt diet containing 0.3% NaCl (AIN-76A, Research Diets, Inc. USA) throughout the experiment and served as a healthy control group. Low-salt diet was fed also to the remaining 16 Dahl rats until the age of 7 weeks, when the diet was switched to a high-salt diet (AIN-76A with 8% NaCl, Research Diets, Inc. USA), and the rats were divided into two weight-matched […] groups (n=8 animals per group); group 1 received regular drinking water (non-treated control), while group 2 received regular drinking water supplemented with 40 mM nicotinamide (i.e. 0.5% w/v) for a period of 12 weeks.
(§1) The lung was harvested and weighed, obtaining the lung weight (LW). For normalisation, the weight was subsequently divided by the length of the left tibia bone (TL), resulting in the ratio LW/TL.

ZSF1 obese rats [11] = assay: Lung congestion by gravimetry, cardiometabolic syndrome model; assay type: in vivo, rat; details: 40 mM nicotinamide, with or without 3 mM spermidine, in drinking water for 14 weeks, FIG. 5b
Protocol: (§2) Cardiometabolic syndrome model: ZSF1 lean and obese rats of both genders were purchased at the age of 5 weeks from the Charles River Laboratories (Kingston, USA). Eight-week-old ZSF1 obese rats were divided into three weight-matched and equally sized/gender-balanced groups: group 1 received regular drinking water (non-treated control), group 2 received regular drinking water supplemented with 40 mM nicotinamide (i.e. 0.5% w/v), and group 3 was administered the combination of 40 mM nicotinamide and 3 mM spermidine (of synthetical origin) in drinking water for a period of 14 weeks. Water as well as food intake were monitored regularly. Age-matched untreated ZSF1 obese and lean rats served as controls.
as §1
This measurement was conducted according to the method of item 2.4.1.

ZSF1 obese rats [12] = assay: Fasting glucose determination, cardiometabolic syndrome model; assay type: in vivo, rat; details: 10 weeks of treatment (8 weeks vs. 18 weeks of age), tail vein blood, FIG. 6a
Protocol: as §2
The basal fasting blood glucose level was determined by collecting a drop of blood from the tail vein. Blood droplet was applied to a test strip that was inserted into a glucose analyzer (glucometer, Accu-Chek Performa). The sampling and measurement was conducted at the age of 8 weeks (baseline) and at the age of 18 weeks. The fold-change was calculated by dividing the values form 18-weeks old animals and 8-weeks old animals.

ZSF1 obese rats [13] = assay: Fasting insulin determination (ELISA), cardiometabolic syndrome model; assay type: in vivo, rat; details: 10 weeks of treatment (8 weeks vs. 18 weeks of age), plasma, 6-h fasted, FIG. 6b
Protocol: as §2
Fasted blood samples were collected from the clavicular vena plexus/jugular vein of 6-h fasted (6 AM-12 AM) and lightly anesthetized rats (2% isoflurane and 98% O2), whose body temperature was maintained at 37° C. using a temperature-controlled heating platform. Fasting insulin was measured in plasma using ultrasensitive rat ELISA kits (Crystal Chem) according to the manufacturer's protocol. The sampling and measurement was conducted at the age of 8 weeks (baseline) and at the age of 18 weeks. The fold-change was calculated by dividing the values form 18-weeks old animals and 8-weeks old animals.

[14] = literature: Gale et al. 2004, Chen et al. 2015, Poyan et al. 2018; cited from earlier work
obese rats = assay: Intraperitoneal glucose tolerance test, spermidine alone in obese rats; assay type: in vivo, rat; details: 10 weeks of spermidine alone, 1 g/kg glucose i.p., 12-h fasted, age 18 weeks, compared with control obese rats, FIG. 8
Protocol: Intraperitoneal glucose tolerance test was performed at 6 AM from 12-h fasted rats. During the experiment, rats were singly housed in empty cages without food, water or bed-ding. The basal fasting blood glucose level was determined by collecting a drop of blood from the tail vein. Blood droplet was applied onto a test strip that was inserted into a glucose analyzer (glucometer, Accu-Chek Performa). Rats were then injected intraperitoneally with 1 g of glucose per kg fasting body mass, and blood glucose levels were determined 15, 30, 60, 90 and 120 min after glucose. The sampling and measurement were conducted at the age of 18 weeks.

SMILES: NC(=O)c1cccnc1 [nicotinamide]
myocardial level of nicotinamide (NAM) (ZSF1 obese rats [1]; FIG. 1 left): significantly increased
myocardial level of nicotinamide adenine dinucleotide+ (NAD+) (ZSF1 obese rats [1]; FIG. 1 right): significantly increased
quotient E/e' (measure of diastolic dysfunction) (Aged C57BL/6J male mice [2]): reduced
left ventricular end-diastolic pressure (EDP), marker for diastolic dysfunction [3]: reduced
quotient E/e' (measure of diastolic dysfunction) (ZSF1 obese rats [4]): reduced
heart weight-to-tibia length ratio (HW/TL), marker of cardiac hypertrophy (Aged C57BL/6J male mice [5]): reduced
heart weight-to-tibia length ratio (HW/TL), marker of cardiac hypertrophy [6]: reduced to levels similar to the control
heart weight-to-tibia length ratio (HW/TL), marker of cardiac hypertrophy (ZSF1 obese rats [7]): reduced
maximal oxygen consumption (VO2max) [8]: increased
run distance [8]: increased
maximal oxygen consumption (VO2max) (ZSF1 obese rats [9]): increased
run distance (ZSF1 obese rats [9]): increased
ratio LW/TL (lung weight to tibia length), measure of lung congestion [10]: decrease
ratio LW/TL (lung weight to tibia length), measure of lung congestion (ZSF1 obese rats [11]): compensated this effect
fasting glucose level (fold-change 18 weeks vs 8 weeks) (ZSF1 obese rats [12]): increased
fasting insulin level (fold-change 18 weeks vs 8 weeks) (ZSF1 obese rats [13]): increased
tolerability at high doses during chronical administration [14]: well-tolerated

fasting glucose level (fold-change 18 weeks vs 8 weeks) (ZSF1 obese rats [12]): no significant influence
fasting insulin level (fold-change 18 weeks vs 8 weeks) (ZSF1 obese rats [13]): no significant influence
SMILES: NCCCCNCCCN [spermidine]
glucose clearance curve (also as AUC) (obese rats): did not change
